Counter-ions that a name gives are not always drawn.
Molecular target: T1, full length SGK1 (Homo sapiens, UniProt O00141)
T1 construct: 125 μM full length SGK1 (Life Technologies Part #PR7358A); purchased Life Technologies PR7358A
T1 sequence (O00141 1-431): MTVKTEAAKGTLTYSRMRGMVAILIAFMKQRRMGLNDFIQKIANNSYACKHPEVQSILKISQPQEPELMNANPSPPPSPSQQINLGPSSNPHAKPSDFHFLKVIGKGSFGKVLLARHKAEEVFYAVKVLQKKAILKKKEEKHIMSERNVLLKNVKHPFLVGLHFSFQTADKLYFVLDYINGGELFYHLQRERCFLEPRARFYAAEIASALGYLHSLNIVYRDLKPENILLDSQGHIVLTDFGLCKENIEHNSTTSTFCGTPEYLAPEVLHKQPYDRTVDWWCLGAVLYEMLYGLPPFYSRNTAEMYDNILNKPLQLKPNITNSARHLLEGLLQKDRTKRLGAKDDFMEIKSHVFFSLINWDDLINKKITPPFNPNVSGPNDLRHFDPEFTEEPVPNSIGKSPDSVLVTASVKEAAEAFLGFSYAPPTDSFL
Assay: SGK1 inhibition Assay A (Caliper LabChip electrophoretic separation of fluorescent peptide substrate and phosphorylated product)
Type: biochemical
Conditions: Assay A; 20 μM ATP, 40 min incubation; read-out: SGK1 IC50

Row | IC50 [µM] | SMILES
1 | 0.037 | CC(=O)N1CC=C(c2cc(N3CCC[C@@H](NC(=O)c4cccc(OC5CCN(C(C)C)CC5)n4)C3)c3c(N)ncnn23)C1 [Example 751, (R)-N-(1-(7-(1-acetyl-2,5-dihydro-1H-pyrrol-3-yl)-4-aminopyrrolo[2,1-f][1,2,4]triazin-5-yl)piperidin-3-yl)-6-((1-isopropylpiperidin-4-yl)oxy)picolinamide]
2 | 0.011 | CC(=O)N1CC=C(c2cc(N3CCC[C@@H](NC(=O)c4cccc(OCCN5CCN(C)CC5)n4)C3)c3c(N)ncnn23)C1 [Example 701, (R)-N-(1-(7-(1-acetyl-2,5-dihydro-1H-pyrrol-3-yl)-4-aminopyrrolo[2,1-f][1,2,4]triazin-5-yl)piperidin-3-yl)-6-(2-(4-methylpiperazin-1-yl)ethoxy)picolinamide]
3 | 0.025 | Nc1ncnn2c(C3=CCN(C(=O)[C@H]4CCNC4)C3)cc(N3CCC[C@@H](NC(=O)c4ccc(Cl)s4)C3)c12 [Example 891, N-((R)-1-(4-amino-7-(1-((S)-pyrrolidine-3-carbonyl)-2,5-dihydro-1H-pyrrol-3-y1)pyrrolo[2,1-f][1,2,4]triazin-5-y1)piperidin-3-y1)-5-chlorothiophene-2-carboxamide]
4 | 0.053 | CC(=O)N1CC=C(c2cc(N3CCC[C@@H](NC(=O)c4cc(-c5ccccc5)ncn4)C3)c3c(N)ncnn23)C1 [Example 492, (R)-N-(1-(7-(1-acetyl-2,5-dihydro-1H-pyrrol-3-yl)-4-aminopyrrolo[2,1-f][1,2,4]triazin-5-yl)piperidin-3-yl)-6-phenylpyrimidine-4-carboxamide]
5 | 0.005 | CC(=O)N1CC=C(c2cc(N3CCC[C@@H](NC(=O)c4ccc(-c5ccnc(C(F)F)c5)s4)C3)c3c(N)ncnn23)C1 [Example 541, (R)—N-(1-(7-(1-acetyl-2,5-dihydro-1H-pyrrol-3-yl)-4-aminopyrrolo[2,1-f][1,2,4]triazin-5-yl)piperidin-3-yl)-5-(2-(difluoromethyl)pyridin-4-yl)thiophene-2-carboxamide]
6 | 0.003 | CC(=O)N1CC=C(c2cc(N3CCC[C@@H](NC(=O)c4sc(Cl)cc4OC4CC5CC4CN5)C3)c3c(N)ncnn23)C1 (single isomer, unassigned) [Example 607]
7 | 0.008 | CN1CCC(COc2cc(Cl)sc2C(=O)N[C@@H]2CCCN(c3cc(-c4cncnc4)n4ncnc(N)c34)C2)CC1 [Example 643, (R)-N-(1-(4-amino-7-(pyrimidin-5-yl)pyrrolo[2,1-f][1,2,4]triazin-5-y1)piperidin-3-y1)-5-chloro-3-((1-methylpiperidin-4-yl)methoxy)thiophene-2-carboxamide]
8 | 0.022 | CC(C)(C)OC(=O)N1CC=C(c2ccc(C(=O)N[C@@H]3CCCN(c4cc(-c5ccnc(C(F)F)c5)n5ncnc(N)c45)C3)s2)CC1 [Example 545, tert-butyl (R)-4-(5-((1-(4-amino-7-(2-(difluoromethyl)pyridin-4-yl)pyrrolo[2,1-f][1,2,4]triazin-5-yl)piperidin-3-yl)carbamoyl)thiophen-2-yl)-3,6-dihydropyridine-1(2H)-carboxylate]
9 | 0.135 | CCn1ccc(C(=O)N[C@@H]2CCCN(c3cc(C4=CCN(C(C)=O)C4)n4ncnc(N)c34)C2)n1 [Example 742, (R)-N-(1-(7-(1-acetyl-2,5-dihydro-1H-pyrrol-3-yl)-4-aminopyrrolo[2,1-f][1,2,4]triazin-5-yl)piperidin-3-yl)-1-ethyl-1H-pyrazole-3-carboxamide]
10 | 0.007 | CC(=O)N1CC=C(c2cc(N3CCC[C@@H](NC(=O)c4sc(Cl)cc4OC4CCNCC4F)C3)c3c(N)ncnn23)C1 (stereo partly drawn) [Example 603, N-((R)-1-(7-(1-acetyl-2,5-dihydro-1H-pyrrol-3-y1)-4-aminopyrrolo[2,1-f][1,2,4]triazin-5-yl)piperidin-3-y1)-5-chloro-3-((3-fluoropiperidin-4-yl)oxy)thiophene~2-carboxamide]
11 | 0.012 | CC(=O)N1CC=C(c2cc(N3CCC[C@@H](NC(=O)c4cccc(OCCN(C)C)n4)C3)c3c(N)ncnn23)C1 [Example 702, (R)-N-(1-(7-(1-acetyl-2,5-dihydro-1H-pyrrol-3-yl)-4-aminopyrrolo[2,1-f][1,2,4]triazin-5-yl)piperidin-3-yl)-6-(2-(dimethylamino)ethoxy) picolinamide]
12 | 0.104 | N#Cc1ccc(-c2cc(N3CCC[C@@H](NC(=O)c4n[nH]c5ccccc45)C3)c3c(N)ncnn23)cn1 [Example 648, (R)-N-(1-(4-amino-7-(6-cyanopyridin-3-yl)pyrrolo[2,1-f][1,2,4]triazin-5-yl)piperidin-3-y1)-1H-indazole-3-carboxamide]

The remaining lines, values behind:

Row | SMILES | IC50 [µM]
13 | CC(=O)NCCOc1cc(C(F)F)sc1C(=O)N[C@@H]1CCCN(c2cc(-c3ccc(=O)n(CC(F)F)c3)n3ncnc(N)c23)C1 [Example 432, (R)-3-(2-acetamidoethoxy)-N-(1-(4-amino-7-(1-(2,2-difluoro-ethyl)-6-oxo-1,6-dihydropyri-din-3-yl)pyrrolo[2,1-f] [1,2,4]triazin-5-yl)piperidin-3-yl)-5-(difluoromethyl)thio-phene-2-carboxamide] | 0.008
14 | Nc1ncnn2c(-c3cccc(OC(F)F)c3)cc(N3CCC[C@@H](NC(=O)c4ccc(Cl)s4)C3)c12 [Example 229] | 0.046
15 | CS(=O)(=O)c1ccc(-c2cc(N3CCCC(NC(=O)c4cccnn4)C3)c3c(N)ncnn23)cc1 (stereo not shown) [Example 3, N-(1-(4-amino-7-(4-(methylsulfonyl)phenyl)pyrrolo[2,1-f][1,2,4]triazin-5-yl)piperidin-3-yl)pyridazine-3-carboxamide, TFA] | 0.239
16 | CC(=O)N1CC=C(c2cc(N3CCC[C@@H](NC(=O)c4nn(-c5ccccc5)nc4C)C3)c3c(N)ncnn23)C1 [Example 471, (R)-N-(1-(7-(1-acetyl-2,5-dihydro-1H-pyrrol-3-yl)-4-aminopyrrolo[2,1-f][1,2,4]triazin-5-yl)piperidin-3-yl)-5-methyl-2-phenyl-2H-1,2,3-tricazole-4-arboxamide] | 0.146
17 | CC(=O)N1CC=C(c2cc(N3CCC[C@@H](NC(=O)c4sc(C(F)F)cc4C4CCN(C(C)C)C4)C3)c3c(N)ncnn23)C1 (stereo partly drawn) [Example 407, N-((R)-1-(7-(1-acetyl-2,5-dihydro-1H-pyrrol-3-yl)-4-aminopyrrolo[2,1-f][1,2,4]triazin-5-yl)piperidin-3-yl)-5-(difluoromethyl)-3-(1-isopropylpyrrolidin-3-yl)thiophene-2-carboxamide] | 0.322
18 | Cc1cc(N2CCOCC2)c(C(=O)N[C@@H]2CCCN(c3cc(-c4ccnc(F)c4)n4ncnc(N)c34)C2)s1 [Example 198, (R)—N-(1-(4-amino-7-(2-fluoropyridin-4-yl)pyrrolo[2,1-f][1,2,4]triazin-5-yl)piperidin-3-yl)-5-methyl-3-morpholinothiophene-2-carboxamide, 2 TFA] | 0.002
19 | CN(C)CCOc1cc(C(F)F)sc1C(=O)N[C@@H]1CCCN(c2cc(-c3ccc(C=O)cc3)n3ncnc(N)c23)C1 [Example 308, (R)-N-(1-(4-amino-7-(4-formylphenyl)pyrrolo[2,1-f][1,2,4]triazin-5-yl)piperidin-3-yl)-5-(difluoromethyl)-3-(2-(dimethylamino)ethoxy)thiophene-2-carboxamide] | 0.001
20 | CC(=O)N1CC=C(c2cc(N3CCC[C@@H](NC(=O)c4sc(C)nc4OCCN(C)C)C3)c3c(N)ncnn23)C1 [Example 352, (R)—N-(1-(7-(1-acetyl-2,5-dihydro-1H-pyrrol-3-yl)-4-aminopyrrolo[2,1-f][1,2,4]triazin-5-yl)piperidin-3-yl)-4-(2-(dimethylamino)ethoxy)-2-methylthiazole-5-carboxamide] | 0.014
21 | CC1(NC(=O)c2ccc(Cl)s2)CCCN(c2cc(-c3ccc(S(C)(=O)=O)cc3)n3ncnc(N)c23)C1 (stereo not shown) [Example 145, N-(1-(4-amino-7-(4-(methylsulfonyl)phenyl)pyrrolo[2,1-f][1,2,4]triazin-5-yl)-3-methylpiperidin-3-yl)-5-chlorothiophene-2-carboxamide, TFA] | 0.765
22 | CN(C)CCOc1cc(Cl)sc1C(=O)N[C@@H]1CCCN(c2cc(C3=CCN(S(C)(=O)=O)C3)n3ncnc(N)c23)C1 [Example 141, (R)—N-(1-(4-amino-7-(1-(methylsulfonyl)-2,5-dihydro-1H-pyrrol-3-yl)pyrrolo[2,1-f][1,2,4]triazin-5-yl)piperidin-3-yl)-5-chloro-3-(2-(dimethylamino)ethoxy)thiophene-2-carboxamide, TFA] | 0.003
23 | C[C@@H]1CN(CCOc2cc(Cl)sc2C(=O)N[C@@H]2CCCN(c3cc(-c4ccnc(C(F)F)c4)n4ncnc(N)c34)C2)C[C@H](C)O1 [Example 296, N-((R)-1-(4-amino-7-(2-(difluoromethyl)pyridin-4-yl)pyrrolo[2,1-f][1,2,4]triazin-5-yl)piperidin-3-yl)-5-chloro-3-(2-((25,6R)-2,6-dimethylmorpholino)ethoxy)thiophone-2-carboxamide] | 0.012
24 | CS(=O)(=O)c1ccc(-c2cc(N3CCC[C@@H](NC(=O)c4cn5ccncc5n4)C3)c3c(N)ncnn23)cc1 [Example 42, (R)-N-(1-(4-amino-7-(4-(methylsulfonyl)phenyl)pyrrolo 2,1-f][1,2,4]triazin-5-yl)piperidin-3-yl)imidazo[1,2-alpyrazine-2-carboxamide, TFA] | 0.187
25 | COC(C(=O)N1CC=C(c2cc(N3CCC[C@@H](NC(=O)c4sc(Cl)cc4OCCN4CCOCC4)C3)c3c(N)ncnn23)C1)C1CC1 (stereo partly drawn) [Example 260, N-((3R)-1-(4-amino-7-(1-(2-cyclopropyl-2-methoxyacetyl)-2,5-dihydro-1H-pyrrol-3-yl)pyrrolo[2,1-f] [1,2,4]triazin-5-yl)piperidin-3-yl)-5-chloro-3-(2-morpholinoethoxy)thiophene-2-carboxamide] | 0.048
